Measured values from ChEMBL document CHEMBL5209590, “Membrane potential based transport assay for SLC7A3 using HEK293 JumpIn SLC7A3 OE cells” (2022).

Target: Cationic amino acid transporter 3 (Homo sapiens, UniProt Q8WY07)
Assay: Substrate uptake by the Cationic Amino Acid Transporter (CAT-3, SLC7A3) as assessed by the fluorescent FLIPR membrane potential dye in HEK-293 JumpIN-SLC7A3 cells (PubChem AID: 1745863)
Assay type: functional, cell-based, HEK293

Sequence of Cationic amino acid transporter 3 (Q8WY07 whole entry): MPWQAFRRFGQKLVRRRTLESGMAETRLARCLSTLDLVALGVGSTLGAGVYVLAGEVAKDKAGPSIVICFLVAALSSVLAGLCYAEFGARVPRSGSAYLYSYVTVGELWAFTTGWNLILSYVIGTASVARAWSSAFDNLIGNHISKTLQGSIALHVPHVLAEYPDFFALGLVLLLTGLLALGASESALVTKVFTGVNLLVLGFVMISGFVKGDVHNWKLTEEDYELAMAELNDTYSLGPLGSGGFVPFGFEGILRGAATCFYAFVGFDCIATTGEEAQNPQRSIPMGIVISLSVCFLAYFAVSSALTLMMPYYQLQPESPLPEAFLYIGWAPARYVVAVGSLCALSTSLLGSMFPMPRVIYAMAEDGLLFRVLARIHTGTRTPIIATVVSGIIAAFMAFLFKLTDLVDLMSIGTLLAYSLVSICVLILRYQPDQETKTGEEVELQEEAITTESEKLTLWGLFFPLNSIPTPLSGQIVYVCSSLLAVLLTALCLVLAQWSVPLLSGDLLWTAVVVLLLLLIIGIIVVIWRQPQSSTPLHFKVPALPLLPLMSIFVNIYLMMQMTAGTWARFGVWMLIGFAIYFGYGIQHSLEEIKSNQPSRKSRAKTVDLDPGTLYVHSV

SMILES	EC50 [µM]
N=C(N)NCCC[C@H](N)C(=O)O [ARGININE]	283
NCCC[C@H](N)C(=O)O	237
NCCCC[C@H](N)C(=O)O [LYSINE]	158
